Measured values: PubChem BioAssay (NCI)
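Interpolation was linear, between the two tested concentrations surrounding the appropriate level; five concentrations were tested over 48 hours in 96-well plates. TGI: total growth inhibition.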

Experiments:
Assay in all cases: NCI tumour cell line growth inhibition, 48 h
ACHN renal = tested on: ACHN renal
COLO 205 colon = tested on: COLO 205 colon
DU-145 prostate = tested on: DU-145 prostate
OVCAR-4 ovarian = tested on: OVCAR-4 ovarian
HCT-15 colon = tested on: HCT-15 colon
CCRF-CEM leukemia = tested on: CCRF-CEM leukemia
SF-295 CNS = tested on: SF-295 CNS
M14 melanoma = tested on: M14 melanoma
EKVX NSCLC = tested on: EKVX NSCLC
K-562 leukemia = tested on: K-562 leukemia
UACC-62 melanoma = tested on: UACC-62 melanoma
U251 CNS = tested on: U251 CNS
NCI-H226 lung = tested on: NCI-H226 lung
SK-MEL-28 melanoma = tested on: SK-MEL-28 melanoma
786-0 renal = tested on: 786-0 renal
MDA-MB-231 breast = tested on: MDA-MB-231 breast
SN12C renal = tested on: SN12C renal
SF-268 CNS = tested on: SF-268 CNS
SNB-75 CNS = tested on: SNB-75 CNS
BT-549 breast = tested on: BT-549 breast
HCC-2998 colon = tested on: HCC-2998 colon
NCI/ADR-RES ovarian = tested on: NCI/ADR-RES ovarian
HOP-62 NSCLC = tested on: HOP-62 NSCLC
SF-539 CNS = tested on: SF-539 CNS
CAKI-1 renal = tested on: CAKI-1 renal
SK-MEL-5 melanoma = tested on: SK-MEL-5 melanoma
A498 renal = tested on: A498 renal
OVCAR-3 ovarian = tested on: OVCAR-3 ovarian
MCF7 breast = tested on: MCF7 breast
TK-10 renal = tested on: TK-10 renal
LOX IMVI melanoma = tested on: LOX IMVI melanoma
SK-OV-3 ovarian = tested on: SK-OV-3 ovarian
MDA-N = tested on: MDA-N
OVCAR-8 ovarian = tested on: OVCAR-8 ovarian
T-47D breast = tested on: T-47D breast
NCI-H23 lung = tested on: NCI-H23 lung
RXF 393 renal = tested on: RXF 393 renal
RPMI-8226 leukemia = tested on: RPMI-8226 leukemia
MOLT-4 leukemia = tested on: MOLT-4 leukemia
NCI-H460 lung = tested on: NCI-H460 lung
HT29 colon = tested on: HT29 colon
OVCAR-5 ovarian = tested on: OVCAR-5 ovarian
MDA-MB-435 = tested on: MDA-MB-435
UACC-257 melanoma = tested on: UACC-257 melanoma
MALME-3M melanoma = tested on: MALME-3M melanoma
HL-60(TB) leukemia = tested on: HL-60(TB) leukemia
SW-620 colon = tested on: SW-620 colon
SNB-19 CNS = tested on: SNB-19 CNS
IGROV1 ovarian = tested on: IGROV1 ovarian
HS 578T breast = tested on: HS 578T breast
KM12 colon = tested on: KM12 colon
A549 NSCLC = tested on: A549 NSCLC
SK-MEL-2 melanoma = tested on: SK-MEL-2 melanoma
PC-3 prostate = tested on: PC-3 prostate
HCT-116 colon = tested on: HCT-116 colon
NCI-H522 lung = tested on: NCI-H522 lung
UO-31 renal = tested on: UO-31 renal

Q: What does the source list for CC(=O)OC/C=C(\C)CCC(Br)C(C)(C)Br (configuration not stated)?
A: TGI (ACHN renal): > 10 µM; TGI (COLO 205 colon): > 10 µM; TGI (DU-145 prostate): > 10 µM; TGI (OVCAR-4 ovarian): > 10 µM; TGI (HCT-15 colon): > 10 µM; TGI (CCRF-CEM leukemia): > 10 µM; TGI (SF-295 CNS): > 10 µM; TGI (M14 melanoma): > 10 µM; TGI (EKVX NSCLC): > 10 µM; TGI (K-562 leukemia): > 10 µM; TGI (UACC-62 melanoma): > 10 µM; TGI (U251 CNS): > 10 µM; TGI (NCI-H226 lung): > 10 µM; TGI (SK-MEL-28 melanoma): > 10 µM; TGI (786-0 renal): > 10 µM; TGI (MDA-MB-231 breast): > 10 µM; TGI (SN12C renal): > 10 µM; TGI (SF-268 CNS): > 10 µM; TGI (SNB-75 CNS): > 10 µM; TGI (BT-549 breast): > 10 µM; TGI (HCC-2998 colon): > 10 µM; TGI (NCI/ADR-RES ovarian): > 10 µM; TGI (HOP-62 NSCLC): > 10 µM; TGI (SF-539 CNS): > 10 µM; TGI (CAKI-1 renal): > 10 µM; TGI (SK-MEL-5 melanoma): > 10 µM; TGI (A498 renal): > 10 µM; TGI (OVCAR-3 ovarian): > 10 µM; TGI (MCF7 breast): > 10 µM; TGI (TK-10 renal): > 10 µM; TGI (LOX IMVI melanoma): > 10 µM; TGI (SK-OV-3 ovarian): > 10 µM; TGI (MDA-N): > 10 µM; TGI (OVCAR-8 ovarian): > 10 µM; TGI (T-47D breast): > 10 µM; TGI (NCI-H23 lung): > 10 µM; TGI (RXF 393 renal): > 10 µM; TGI (RPMI-8226 leukemia): > 10 µM; TGI (MOLT-4 leukemia): > 10 µM; TGI (NCI-H460 lung): > 10 µM; TGI (HT29 colon): > 10 µM; TGI (OVCAR-5 ovarian): > 10 µM; TGI (MDA-MB-435): > 10 µM; TGI (UACC-257 melanoma): > 10 µM; TGI (MALME-3M melanoma): > 10 µM; TGI (HL-60(TB) leukemia): > 10 µM; TGI (SW-620 colon): > 10 µM; TGI (SNB-19 CNS): > 10 µM; TGI (IGROV1 ovarian): > 10 µM; TGI (HS 578T breast): > 10 µM; TGI (KM12 colon): > 10 µM; TGI (A549 NSCLC): > 10 µM; TGI (SK-MEL-2 melanoma): > 10 µM; TGI (PC-3 prostate): > 10 µM; TGI (HCT-116 colon): > 10 µM; TGI (NCI-H522 lung): > 10 µM

Q: How did the TGI (ACHN renal) turn out when O=[N+]([O-])/C(C(Cl)=C(Cl)Cl)=C(\Nc1cccc2ccccc12)Sc1ccccc1 was run?
A: The TGI was 28.1 µM.

Q: What about the TGI (COLO 205 colon) of the same molecule?
A: The TGI was 28.7 µM.

Q: What about the TGI (DU-145 prostate) of the same molecule?
A: The TGI was 32 µM.

Q: And the TGI (OVCAR-4 ovarian)?
A: The TGI was 35.7 µM.

Q: What about the TGI (HCT-15 colon) of the same molecule?
A: The TGI was 33.1 µM.

Q: What about the TGI (UO-31 renal) of the same molecule?
A: Its TGI is 38.7 µM.

Q: And the TGI (CCRF-CEM leukemia)?
A: The TGI was over 100 µM.

Q: What about the TGI (SF-295 CNS) of the same molecule?
A: Its TGI is 37.1 µM.

Q: What about the TGI (M14 melanoma) of the same molecule?
A: The TGI was over 100 µM.

Q: What about the TGI (EKVX NSCLC) of the same molecule?
A: Its TGI is 42.2 µM.

Q: And the TGI (K-562 leukemia)?
A: Its TGI is over 100 µM.

Q: And the TGI (UACC-62 melanoma)?
A: The TGI was 24.1 µM.

Q: And the TGI (U251 CNS)?
A: The TGI was 23.4 µM.

Q: What about the TGI (NCI-H226 lung) of the same molecule?
A: Its TGI is 40.4 µM.

Q: What about the TGI (SK-MEL-28 melanoma) of the same molecule?
A: Its TGI is 34 µM.

Q: And the TGI (786-0 renal)?
A: The TGI was 38 µM.

Q: And the TGI (MDA-MB-231 breast)?
A: The TGI was 23.4 µM.

Q: What about the TGI (SN12C renal) of the same molecule?
A: Its TGI is 69.3 µM.

Q: And the TGI (SF-268 CNS)?
A: The TGI was 26 µM.

Q: What about the TGI (SNB-75 CNS) of the same molecule?
A: The TGI was 43.4 µM.

Q: And the TGI (BT-549 breast)?
A: Its TGI is 35.4 µM.

Q: What about the TGI (HCC-2998 colon) of the same molecule?
A: Its TGI is 45.2 µM.

Q: What about the TGI (NCI/ADR-RES ovarian) of the same molecule?
A: The TGI was 31 µM.

Q: What about the TGI (HOP-62 NSCLC) of the same molecule?
A: Its TGI is 50.5 µM.

Q: What about the TGI (SF-539 CNS) of the same molecule?
A: Its TGI is 37.4 µM.

Q: And the TGI (CAKI-1 renal)?
A: The TGI was 29.1 µM.

Q: What about the TGI (A498 renal) of the same molecule?
A: The TGI was 23.5 µM.

Q: And the TGI (OVCAR-3 ovarian)?
A: The TGI was 21.8 µM.

Q: And the TGI (MCF7 breast)?
A: The TGI was 28 µM.

Q: And the TGI (SK-OV-3 ovarian)?
A: The TGI was over 100 µM.

Q: What about the TGI (MDA-N) of the same molecule?
A: Its TGI is 81 µM.

Q: What about the TGI (OVCAR-8 ovarian) of the same molecule?
A: The TGI was 28.6 µM.

Q: And the TGI (T-47D breast)?
A: Its TGI is 44.8 µM.

Q: What about the TGI (NCI-H23 lung) of the same molecule?
A: Its TGI is 31.6 µM.

Q: What about the TGI (RXF 393 renal) of the same molecule?
A: Its TGI is 26.9 µM.

Q: What about the TGI (RPMI-8226 leukemia) of the same molecule?
A: The TGI was over 100 µM.

Q: And the TGI (MOLT-4 leukemia)?
A: The TGI was over 100 µM.

Q: And the TGI (NCI-H460 lung)?
A: The TGI was over 100 µM.

Q: And the TGI (HT29 colon)?
A: The TGI was over 100 µM.

Q: What about the TGI (OVCAR-5 ovarian) of the same molecule?
A: Its TGI is 82.1 µM.

Q: And the TGI (MDA-MB-435)?
A: Its TGI is 33.4 µM.

Q: And the TGI (UACC-257 melanoma)?
A: Its TGI is 42.3 µM.

Q: What about the TGI (MALME-3M melanoma) of the same molecule?
A: Its TGI is 31.3 µM.

Q: What about the TGI (SW-620 colon) of the same molecule?
A: Its TGI is 24.9 µM.

Q: And the TGI (SNB-19 CNS)?
A: Its TGI is 40 µM.

Q: What about the TGI (HS 578T breast) of the same molecule?
A: The TGI was 27.2 µM.

Q: And the TGI (KM12 colon)?
A: The TGI was 32 µM.

Q: What about the TGI (A549 NSCLC) of the same molecule?
A: The TGI was 71.6 µM.

Q: And the TGI (SK-MEL-2 melanoma)?
A: Its TGI is 30.6 µM.

Q: What about the TGI (PC-3 prostate) of the same molecule?
A: The TGI was 27.4 µM.

Q: And the TGI (HCT-116 colon)?
A: Its TGI is 56.3 µM.
